Reference: patent US8119630B2 (Arrow Therapeutics Limited, priority 2002, dated 2012)

How the values were obtained:
RSV = assay: XTT assay, RSV-infected Hep-2 cells; format: cell-based, Respiratory Syncytial Virus (RSV); conditions: Table 2, Examples 75 to 82 and 125 to 184, Hep-2 cells infected with RSV, 6 days at 37° C.
Procedure: Examples 75 to 82 and 125 to 184 were tested according to the protocol described below.
(§1) The inner 60 wells of 96 well tissue culture plates were seeded with Hep-2 cells at 4×10^4 cells/well for compound activity and toxicity studies in 100 μl of medium and incubated at 37° C. overnight or until nearing confluency.
(§2) Cells were infected with 25 μl RSV previously titrated to give 80% cell kill. To each well 25 μM of test compound were added. The final DMSO concentration was 0.5%. Some 200 μl of sterile distilled water were added to the outer wells of the plate and incubated at 37° C. for 6 days. Some 0.25 μl/ml PMS were added to stock […] solution, final conc. 25 μM PMS. Then 25 μl warmed XTT/PMS solution were added to each well and incubated for 1 hour at 37° C.
Maximum OD450nm reading (uninfected, untreated control cells) corresponded to 100% inhibition. Minimum OD450nm readings (infected control cells) corresponded to 0% inhibition. Log 10 concentration was plotted against OD450nm and IC50 values were calculated from either reading 50% value from graph or using regression analysis.

Hep-2 cells = assay: Toxicity studies (XTT), Hep-2 cells; format: cell-based; parameters: TC50 (6d): unit not given beside the values; conditions: for TC50 (2d): Table 2, Examples 75 to 82 and 125 to 184, 2d; for TC50 (6d): Table 2, Examples 75 to 82 and 125 to 184, 6d
Procedure: as §1
as §2, with “Some 200 μl of sterile distilled water were added to the outer wells of the plate and incubated at 37° C. for 6 days.” left out

[1] = human respiratory syncytial virus, 144 h

## Cc1cc(C(=O)NC2N=C(c3ccccc3)c3ccccc3NC2=O)oc1C (stereo not drawn) [Example 152, 4,5-Dimethyl-furan-2-carboxylic acid (2-oxo-5-phenyl-2,3-dihydro-1H-benzo[e][1,4]diazepin-3-yl)amide]
RSV; [1]
  IC50: 0.3 µM
Hep-2 cells
  TC50 (2d): > 100 µM
Hep-2 cells; in µM
  TC50 (6d): 100

## O=C1Nc2ccc(Cl)cc2C(c2ccccc2)=NC1NC(=O)N1CCCCC1 (stereo not drawn) [Example 153, Piperidine-1-carboxylic acid (7-chloro-2-oxo-5-phenyl-2,3-dihydro-1H-benzo[p][1,4]diazepin-3-yl)-amide]
RSV
  IC50: 5 µM
Hep-2 cells
  TC50 (2d): > 100 µM
Hep-2 cells; in µM
  TC50 (6d): >100

## O=C(NC1N=C(c2ccccc2)c2ccccc2NC1=O)c1cnccn1 (stereo not drawn) [Example 162]
RSV
  IC50: 2 µM
Hep-2 cells
  TC50 (2d): > 100 µM
Hep-2 cells; in µM
  TC50 (6d): >100

## COc1cccc(C2=NC(NC(=O)C(C)C)C(=O)Nc3ccccc32)c1 (stereo not drawn) [Example 163]
RSV
  IC50: 5 µM
Hep-2 cells
  TC50 (2d): >100
  TC50 (6d): >100

## O=C(NC1N=C(c2ccccc2)c2ccc(Cl)cc2NC1=O)C1CCCCC1 (stereo not drawn) [Example 168, Cyclohexanecarboxylic acid (8-chloro-2-oxo-5-phenyl-2,3-dihydro-1H-benzo[e][1,4]diazepin-3-yl)-amide]
RSV; [1]
  IC50: 5 µM
Hep-2 cells
  TC50 (2d): > 100 µM
Hep-2 cells; in µM
  TC50 (6d): >100

## Cc1ccc2c(c1)NC(=O)C(NC(=O)c1cccs1)N=C2c1ccccc1 (stereo not drawn) [Example 169, Thiophene-2-carboxylic acid (8-methyl-2-oxo-5-phenyl-2,3-dihydro-1H-benzo[e][1,4]diazepin-3-yl)-amide]
RSV; [1]
  IC50: 5 µM
Hep-2 cells
  TC50 (2d): 50 µM
Hep-2 cells; in µM
  TC50 (6d): 30

## O=C(Nc1cccs1)NC1N=C(c2ccccc2)c2ccccc2NC1=O (stereo not drawn) [Example 170, 1-(2-Oxo-5-phenyl-2,3-dihydro-1H-benzo[e][1,4]diazepin-3-yl)-3-thiophene-2-yl-urea]
RSV; [1]
  IC50: 3.4 µM
Hep-2 cells; in µM
  TC50 (6d): >50

## O=C(Nc1ccsc1)NC1N=C(c2ccccc2)c2ccccc2NC1=O (stereo not drawn) [Example 171, 1-(2-Oxo-5-phenyl-2,3-dihydro-1H-benzo[e][1,4]diazepin-3-yl)-3-thiophene-3-yl-urea]
RSV; [1]
  IC50: 4.8 µM
Hep-2 cells; in µM
  TC50 (6d): >50

## O=C(NC1N=C(c2ccccc2)c2ccccc2NC1=O)c1ccccn1 (stereo not drawn) [Example 172, Pyridine-2-carboxylic-acid (2-oxo-5-phenyl-2,3-dihydro-1H-benzo[e][1,4]diazepin-3-yl)-amide]
RSV; [1]
  IC50: 6.4 µM
Hep-2 cells; in µM
  TC50 (6d): 137.8

## O=C(NC1N=C(c2ccccc2)c2ccccc2NC1=O)c1cn[nH]c1 (stereo not drawn) [Example 173, 1H-Pyrazole-4-carboxylic acid (2-oxo-5-phenyl-2,3-dihydro-1H-benzo[e][1,4]diazepin-3-yl)-amide]
RSV; [1]
  IC50: 8.3 µM
Hep-2 cells; in µM
  TC50 (6d): 95

## CN(C)c1ccc(C(=O)NC2N=C(c3ccccc3)c3ccccc3NC2=O)cn1 (stereo not drawn) [Example 174, 6-Dimethylamino-N-(2-oxo-5-phenyl-2,3-dihydro-1H-benzo[e][1,4]diazepin-3-yl)-nicotinamide]
RSV; [1]
  IC50: 6.9 µM
Hep-2 cells; in µM
  TC50 (6d): 60

## CCOc1ccc2ccccc2c1C(=O)NC1N=C(c2ccccc2)c2ccccc2NC1=O (stereo not drawn) [Example 175, 2-Ethoxy-naphthalene-1-carboxylic acid (2-oxo-5-phenyl-2,3-dihydro-1H-benzo[e][1,4]diazepin-3-yl)-amide]
RSV; [1]
  IC50: 8.2 µM
Hep-2 cells; in µM
  TC50 (6d): >50

## O=C(NC1N=C(c2ccccc2)c2ccccc2NC1=O)c1cccc2c1C(=O)c1ccccc1-2 (stereo not drawn) [Example 176, 9-Oxo-9H-fluorene-1-carboxylic acid (2-oxo-5-phenyl-2,3-dihydro-1H-benzo[e][1,4]diazepin-3-yl)-amide]
RSV; [1]
  IC50: 4.3 µM
Hep-2 cells; in µM
  TC50 (6d): 99

## O=C1Nc2ccccc2C(c2ccccc2)=NC1NC(=O)n1c(=O)[nH]c2ccccc21 (stereo not drawn) [Example 177, 2-Oxo-2,3-dihydro-benzoimidazole-1-carboxylic acid (2-oxo-5-phenyl-2,3-dihydro-1H-benzo[e][1,4]diazepin-3-yl)-amide]
RSV; [1]
  IC50: 4.3 µM
Hep-2 cells; in µM
  TC50 (6d): >50

## CC(C)(C)OC(=O)NC1N=C(c2ccccc2)c2ccccc2NC1=O (stereo not drawn) [Example 178, (2-Oxo-5-phenyl-2,3-dihydro-1H-benzo[e][1,4]diazepin-3-yl)carbamic acid tert-butyl ester]
RSV; [1]
  IC50: 4.3 µM
Hep-2 cells; in µM
  TC50 (6d): >50

## O=C(N[C@H]1N=C(c2ccccc2)c2ccccc2NC1=O)c1cc(Br)c(Br)o1 [Example 179, (S)-4,5-Dibromo-furan-2-carboxylic acid (2-oxo-5-phenyl-2,3-dihydro-1H-benzo[e][1,4]diazepin-3-yl)-amide]
RSV; [1]
  IC50: 3.9 µM
Hep-2 cells; in µM
  TC50 (6d): >50

## O=C(N[C@H]1N=C(c2ccccc2)c2ccccc2NC1=O)c1cc2ccccc2o1 [Example 180, (S)-Benzofuran-2-carboxylic acid (2-oxo-5-phenyl-2,3-dihydro-1H-benzo[e][1,4]diazepin-3-yl)-amide]
RSV; [1]
  IC50: 2.6 µM
Hep-2 cells; in µM
  TC50 (6d): 37.1

## COC(=O)NC1N=C(c2ccccc2)c2ccccc2NC1=O (stereo not drawn) [Example 181, (2-Oxo-5-phenyl-2,3-dihydro-1H-benzo[e][1,4]diazepin-3-yl)-carbamic acid methyl ester]
RSV; [1]
  IC50: 9.6 µM
Hep-2 cells; in µM
  TC50 (6d): >50

## CCOC(=O)NC1N=C(c2ccccc2)c2ccccc2NC1=O (stereo not drawn) [Example 182, (2-Oxo-5-phenyl-2,3-dihydro-1H-benzo[e][1,4]diazepin-3-yl)-carbamic acid ethyl ester]
RSV; [1]
  IC50: 10 µM
Hep-2 cells; in µM
  TC50 (6d): >50

## CC(C)COC(=O)NC1N=C(c2ccccc2)c2ccccc2NC1=O (stereo not drawn) [Example 183, (2-Oxo-5-phenyl-2,3-dihydro-1H-benzo[e][1,4]diazepin-3-yl)-carbamic acid isobutyl ester]
RSV; [1]
  IC50: 9.88 µM
Hep-2 cells; in µM
  TC50 (6d): >50

## O=C(NC1N=C(c2ccccc2)c2ccccc2NC1=O)C(=O)c1cccs1 (stereo not drawn) [Example 184, 2-Oxo-N-(2-oxo-5-phenyl-2,3-dihydro-1H-benzo[e][1,4]diazepin-3-yl)-2-thiophene-2-yl-acetamide]
RSV; [1]
  IC50: 9.5 µM
Hep-2 cells
  TC50 (2d): > 50 µM

## Cyclohexanecarboxylic acid [5-(3-chloro-phenyl)-2-oxo-5-phenyl-2,3-dihydro-1H-benzo[e][1,4]diazepin-3-yl]-amide [Example 158]
RSV
  IC50: 2 µM
Hep-2 cells
  TC50 (2d): 100 µM
Hep-2 cells; in µM
  TC50 (6d): >100

## Cyclohexanecarboxylic acid [5-(3-methoxy-phenyl)-2-oxo-5-phenyl-2,3-dihydro-1H-benzo[e][1,4]diazepin-3-yl]-amide [Example 165]
RSV
  IC50: 2 µM
Hep-2 cells
  TC50 (2d): > 100 µM
Hep-2 cells; in µM
  TC50 (6d): >100

## Furan-2-carboxylic acid [5-(3-chloro-phenyl)-2-oxo-5-phenyl-2,3-dihydro-1H-benzo[e][1,4]diazepin-3-yl]-amide [Example 156]
RSV
  IC50: 1.5 µM
Hep-2 cells
  TC50 (2d): 100 µM
Hep-2 cells; in µM
  TC50 (6d): 100

## N-[5-(3-Chloro-phenyl)-2-oxo-5-phenyl-2,3-dihydro-1H-benzo[e][1,4]diazepin-3-yl)acetamide [Example 154]
RSV
  IC50: 3 µM
Hep-2 cells
  TC50 (2d): > 100 µM
Hep-2 cells; in µM
  TC50 (6d): >100

## N-[5-(3-Chloro-phenyl)-2-oxo-5-phenyl-2,3-dihydro-1H-benzo[e][1,4]diazepin-3-yl]-isobutyramide [Example 155]
RSV
  IC50: 6 µM
Hep-2 cells
  TC50 (2d): > 100 µM
Hep-2 cells; in µM
  TC50 (6d): >100

## N-[5-(3-Chloro-phenyl)-2-oxo-5-phenyl-2,3-dihydro-1H-benzo[e][1,4]diazepin-3-yl]isonicotinamide [Example 160]
RSV
  IC50: 10 µM
Hep-2 cells
  TC50 (2d): > 100 µM
Hep-2 cells; in µM
  TC50 (6d): >100

## Piperidine-1-carboxylic acid [5-(3-chloro-phenyl)-2-oxo-5-phenyl-2,3-dihydro-1H-benzo[e][1,4]diazepin-3-yl]-amide [Example 159]
RSV
  IC50: 2 µM
Hep-2 cells
  TC50 (2d): > 100 µM
Hep-2 cells; in µM
  TC50 (6d): >100

## Piperidine-1-carboxylic acid [5-(3-methoxy-phenyl)-2-oxo-5-phenyl-2,3-dihydro-1H-benzo[e][1,4]diazepin-3-yl]-amide [Example 166]
RSV
  IC50: 5 µM
Hep-2 cells
  TC50 (2d): > 100 µM
Hep-2 cells; in µM
  TC50 (6d): >100

## Piperidine-4-carboxylic acid [5-(3-methoxy-phenyl)-2-oxo-5-phenyl-2,3-dihydro-1H-benzo[e][1,4]diazepin-3-yl]-amide [Example 167]
RSV
  IC50: 9 µM
Hep-2 cells
  TC50 (2d): > 100 µM
Hep-2 cells; in µM
  TC50 (6d): >100

## Thiophene-2-carboxylic acid [5-(3-chloro-phenyl)-2-oxo-5-phenyl-2,3-dihydro-1H-benzo[e][1,4]diazepin-3-yl]-amide [Example 157]
RSV
  IC50: 5 µM
Hep-2 cells
  TC50 (2d): > 100 µM
Hep-2 cells; in µM
  TC50 (6d): 100

## Thiophene-2-carboxylic acid [5-(3-methoxy-phenyl)-2-oxo-5-phenyl-2,3-dihydro-1H-benzo[e][1,4]diazepin-3-yl]-amide [Example 164]
RSV
  IC50: 4 µM
Hep-2 cells
  TC50 (2d): 100 µM
Hep-2 cells; in µM
  TC50 (6d): 100
